Data reported in patent US20110009335A1, “Anticancer Treatments” (priority 2008, published 2011).
Starred links: 1 amine or outer side, 2 acyl side, 3 side chain; linkers in the order of their positions; H or OH if unused. Positions of bridges follow the written chain, without caps; N, C: chain ends. Non-standard residues stand in square brackets, D forms with d. Residues, ends and D or L forms follow the SMILES beside them. *: point of attachment. X1 = CC[C@H](C)[C@@H](N[*:1])[C@@H](O)CC(=O)O[C@H](C(=O)[C@H](C)C(=O)[*:2])C(C)C; NMeY = CN[C@@H](Cc1ccc(O)cc1)C(=O)O; dNMeL = CN[C@H](CC(C)C)C(=O)O; Pyruvoyl = CC(=O)C(=O)*

Legend:
[1] = tested on: NCI-H-460 human NSCLC xenograft; test: Aplidine with temsirolimus, NCI-H-460 xenograft in athymic nude mice (Example 5); format: in vivo; conditions: for % Inhibition G2: aplidine 0.06 mg/kg/day; for antitumor activity as single agent (monotherapy): temsirolimus 10 and 20 mg/kg/day; for % Inhibition G4: temsirolimus 10 mg/kg/day; for % Inhibition G3: temsirolimus 20 mg/kg/day
Experimental: Female athymic nude mice (Harlan Sprague Dawley, Madison, Wis.) were utilized for all experiments. Mice were implanted with a cell suspension when mice were 6-8 weeks of age. Animals were housed in ventilated rack caging with food and water ad libitum. The mice were acclimated for at least 5 days prior to tumor implantation.
The tumor model used in this study was NCI-H-460, which is a human NSCLC cell line obtained from the ATCC (Manassas, Va.). NCI-H-460 cells were grown in RPMI-1640 medium, 10% FBS, 10 mM Hepes, 1 mM sodium pyruvate, 4.5 g/l glucose, 1.5 g/l sodium bicarbonate and 2 mM L-glutamine. Cells from in vitro passage 11 were implanted SC into study mice: 5×10^6 cells/mouse in 0.2 ml 50% Matrigel/50% medium without antibiotics or serum, using a 23 G needle and 1 cc syringe.
Tumor measurements were determined as disclosed in Example 1. When tumor growth was within an average size range of 110±25 mg (mean±SD), mice were randomized into the treatment and control groups based on tumor weight by using LabCat® In Life module V 8.0 SP1 tumor tracking and measurement software.
The treatment of NCI-H-460-tumor-bearing mice was initiated on DPI (Day Post Implantation) 7. Body weights were recorded on treatment days and when tumor sizes were measured. In those days wherein the two drugs were administered the same day, the combination therapy groups were treated by co-administering the two drugs at the same time, with no attempt to sequence the treatments.
(§1) Aplidine was provided in the form of vials of lyophilized aplidine powder which was reconstituted in Cremophor EL/ethanol/water (CEW) 15/15/70 to a concentration of 0.5 mg/ml. The aplidine solution in CEW was diluted in 0.9% Saline to the dosing formulation concentrations, being the final proportion of CEW of 0.18/0.18/0.84.
(§2) Temsirolimus was provided in the form of vials containing a non-aqueous, ethanolic, sterile solution of temsirolimus, 25 mg/ml. […] Then, the solution was further diluted in 0.9% Saline to the dosing formulation concentrations.
(§3) Tumor size measurements were recorded twice weekly from the treatment initiation until the termination of the study. Tumor growth inhibition was assessed comparing the mean tumor weight between the two agents in combination (aplidine and temsirolimus) against temsirolimus mean tumor weight at the different concentrations assayed.
(§4) Mean, standard deviation and standard error of the mean were determined for tumor volume for all animal groups at all assessments. Student's t test was performed on tumor volumes at each measurement day, including at the end of the study, to determine whether there were any statistically significant differences between combination treatment groups and single monotherapy treatment groups.
(§5) The definition and criteria for the evaluation of potentiation and the degree of additivity for the combination therapy were the same as those disclose in Example 1.

[2] = tested on: MRI-H-121 human renal tumor xenograft; test: Aplidine with temsirolimus, MRI-H-121 xenograft in athymic nude mice (Example 3); format: in vivo; conditions: for % Inhibition G2: aplidine 0.06 mg/kg/day; for antitumor activity as single agent (monotherapy): doses tested, temsirolimus 10 and 20 mg/kg/day
Experimental: Female athymic nude mice (Harlan Sprague Dawley, Madison, Wis.) were utilized for all experiments. Mice were implanted with tumor fragments when mice were 5 weeks of age. Animals were housed in ventilated rack caging, 5 mice per cage, with food and water ad libitum. The mice were acclimated for 1 week prior to being implanted with tumor fragments.
Tumor measurements were determined as disclosed in Example 1. When tumor growth was within an average size range of 95±1.6 mg (mean±SD), mice were randomized into the treatment and control groups based on tumor weight by using LabCat® In Life module V 8.0 SP1 tumor tracking and measurement software.
Body weights were recorded on treatment days and when tumor sizes were measured. In those days wherein the two drugs were administered the same day, the combination therapy groups were treated by co-administering the two drugs at the same time, with no attempt to sequence the treatments.
as §1, §2, §3, §4, §5

[3] = G2: aplidine 0.060 mg/kg/day IP
[4] = G3: temsirolimus 20 mg/kg/day IP
[5] = G4: temsirolimus 10 mg/kg/day IP

In the case of `CC[C@H](C)[C@H]1NC(=O)[C@@H](NC(=O)[C@@H](CC(C)C)N(C)C(=O)[C@@H]2CCCN2C(=O)C(C)=O)[C@@H](C)OC(=O)[C@H](Cc2ccc(OC)cc2)N(C)C(=O)[C@@H]2CCCN2C(=O)[C@H](CC(C)C)NC(=O)[C@@H](C)C(=O)[C@H](C(C)C)OC(=O)C[C@@H]1O` [aplidine, dehydrodidemnin B] (Pyruvoyl-P[dNMeL]T[X1]LP[NMeY](Me); ester 3-C), the “% T/C on day 7” value [1, 3] was 101.2%, the “% T/C on day 10” value [1, 3] was 95.5% and the “% T/C on day 13” value [1, 3] was 73.2%. The “% T/C on day 16” value [1, 3] was 77.4%, the “% T/C on day 20” value [1, 3] was 88.5% and the “% T/C on day 23” value [1, 3] was 84.3%. For the same molecule, the “% T/C on day 27” value [1, 3] was 86.4%, the “% T/C on day 29” value [1, 3] was 96.9% and the “% T/C on day 31” value [1, 3] was 96.0%. The “% Inhibition G2” value ([1]; day 7) was −1.2%, the “% Inhibition G2” value ([1]; day 10) was 4.5% and the “% Inhibition G2” value ([1]; day 13) was 26.8%. For the same molecule, the “% Inhibition G2” value ([1]; day 16) was 22.6%, the “% Inhibition G2” value ([1]; day 20) was 11.5% and the “% Inhibition G2” value ([1]; day 23) was 15.7%. For the same molecule, the “% Inhibition G2” value ([1]; day 27) was 13.6%, the “% Inhibition G2” value ([1]; day 29) was 3.1% and the “% Inhibition G2” value ([1]; day 31) was 4.0%. For the same molecule, the “antitumor activity as single agent (monotherapy)” value (“antitumor activity” for short) [1] was “inactive”, the “% Inhibition G2” value ([2]; day 12) was 1.7% and the “% Inhibition G2” value ([2]; day 15) was −9.0%. The “% Inhibition G2” value ([2]; day 19) was 15.1%, the “% Inhibition G2” value ([2]; day 22) was 6.0% and the “% Inhibition G2” value ([2]; day 27) was 13.7%. For the same molecule, the “% Inhibition G2” value ([2]; day 30) was 2.5%, the “% Inhibition G2” value ([2]; day 34) was 3.0% and the “% Inhibition G2” value ([2]; day 37) was 5.0%. For the same molecule, the “% Inhibition G2” value ([2]; day 40) was −7.6%, the “% Inhibition G2” value ([2]; day 47) was −1.6% and the “antitumor activity” value [2] was “refractory”.

With `CO[C@H]1C[C@@H]2CC[C@@H](C)[C@@](O)(O2)C(=O)C(=O)N2CCCC[C@H]2C(=O)O[C@H]([C@H](C)C[C@@H]2CC[C@@H](OC(=O)C(C)(CO)CO)[C@H](OC)C2)CC(=O)[C@H](C)/C=C(\C)[C@@H](O)[C@@H](OC)C(=O)[C@H](C)C[C@H](C)/C=C/C=C/C=C/1C` [temsirolimus] the “% T/C on day 7” value [1, 4] was 98.2%, the “% T/C on day 10” value [1, 4] was 41.2% and the “% T/C on day 13” value [1, 4] was 30.5%. The “% T/C on day 16” value [1, 4] was 30.9%, the “% T/C on day 20” value [1, 4] was 26.3% and the “% T/C on day 23” value [1, 4] was 27.4%. The “% T/C on day 27” value [1, 4] was 35.6%, the “% T/C on day 29” value [1, 4] was 48.2% and the “% T/C on day 31” value [1, 4] was 56.8%. The “% T/C on day 7” value [1, 5] was 102.1%, the “% T/C on day 10” value [1, 5] was 49.9% and the “% T/C on day 13” value [1, 5] was 37.1%. For the same molecule, the “% T/C on day 16” value [1, 5] was 34.1%, the “% T/C on day 20” value [1, 5] was 30.9% and the “% T/C on day 23” value [1, 5] was 31.4%. The “% T/C on day 27” value [1, 5] was 42.6%, the “% T/C on day 29” value [1, 5] was 57.8% and the “% T/C on day 31” value [1, 5] was 60.3%. For the same molecule, the “% Inhibition G4” value ([1]; day 7) was −2.1%, the “% Inhibition G4” value ([1]; day 10) was 50.1% and the “% Inhibition G4” value ([1]; day 13) was 62.9%. For the same molecule, the “% Inhibition G4” value ([1]; day 16) was 65.9%, the “% Inhibition G4” value ([1]; day 20) was 69.1% and the “% Inhibition G4” value ([1]; day 23) was 68.6%. For the same molecule, the “% Inhibition G4” value ([1]; day 27) was 57.4%, the “% Inhibition G4” value ([1]; day 29) was 42.2% and the “% Inhibition G4” value ([1]; day 31) was 39.7%. The “% Inhibition G3” value ([1]; day 7) was 1.8%, the “% Inhibition G3” value ([1]; day 10) was 58.8% and the “% Inhibition G3” value ([1]; day 13) was 69.5%. The “% Inhibition G3” value ([1]; day 16) was 69.1%, the “% Inhibition G3” value ([1]; day 20) was 73.7% and the “% Inhibition G3” value ([1]; day 23) was 72.6%. The “% Inhibition G3” value ([1]; day 27) was 64.4%, the “% Inhibition G3” value ([1]; day 29) was 51.8% and the “% Inhibition G3” value ([1]; day 31) was 43.2%. For the same molecule, the “antitumor activity” value [1] was “meeting the NCI criteria for activity”, the “antitumor activity” value [2] was “very sensitive” and the “% Inhibition G3” value ([2]; temsirolimus 10 mg/kg/day, day 12) was 4.2%. For the same molecule, the “% Inhibition G3” value ([2]; temsirolimus 10 mg/kg/day, day 15) was 37.8%, the “% Inhibition G3” value ([2]; temsirolimus 10 mg/kg/day, day 19) was 57.7% and the “% Inhibition G3” value ([2]; temsirolimus 10 mg/kg/day, day 22) was 54.3%. For the same molecule, the “% Inhibition G3” value ([2]; temsirolimus 10 mg/kg/day, day 27) was 61.7%, the “% Inhibition G3” value ([2]; temsirolimus 10 mg/kg/day, day 30) was 63.1% and the “% Inhibition G3” value ([2]; temsirolimus 10 mg/kg/day, day 34) was 67.4%. For the same molecule, the “% Inhibition G3” value ([2]; temsirolimus 10 mg/kg/day, day 37) was 64.2%, the “% Inhibition G3” value ([2]; temsirolimus 10 mg/kg/day, day 40) was 57.5% and the “% Inhibition G3” value ([2]; temsirolimus 10 mg/kg/day, day 47) was 56.2%. For the same molecule, the “% Inhibition G3” value ([2]; temsirolimus 20 mg/kg/day, day 12) was 2.3%, the “% Inhibition G3” value ([2]; temsirolimus 20 mg/kg/day, day 15) was 33.2% and the “% Inhibition G3” value ([2]; temsirolimus 20 mg/kg/day, day 19) was 58.5%. The “% Inhibition G3” value ([2]; temsirolimus 20 mg/kg/day, day 22) was 64.9%, the “% Inhibition G3” value ([2]; temsirolimus 20 mg/kg/day, day 27) was 72.6% and the “% Inhibition G3” value ([2]; temsirolimus 20 mg/kg/day, day 30) was 71.5%. The “% Inhibition G3” value ([2]; temsirolimus 20 mg/kg/day, day 34) was 73.7%, the “% Inhibition G3” value ([2]; temsirolimus 20 mg/kg/day, day 37) was 71.6% and the “% Inhibition G3” value ([2]; temsirolimus 20 mg/kg/day, day 40) was 71.5%. The “% Inhibition G3” value ([2]; temsirolimus 20 mg/kg/day, day 47) was 73.0%.
